Experimental data taken from US12465594B2 (Brown University, priority 2018, dated 2025).

Legend:
Sigma 2 = assay: PDSP binding assay; conditions: 10 μM, quadruplicate, cloned target
5-HT1D = biological target: T1, 5-HT1D (Homo sapiens, UniProt P28221); assay: PDSP binding assay; conditions: 10 μM, quadruplicate, cloned target
T1 construct: NIMH Psychoactive Drug Screening Program (PDSP)

5-HT5A = biological target: T2, 5-HT5A (Homo sapiens, UniProt P47898); assay: PDSP binding assay; conditions: 10 μM, quadruplicate, cloned target
T2 construct: NIMH Psychoactive Drug Screening Program (PDSP)
T2 sequence (P47898 whole entry, species assumed): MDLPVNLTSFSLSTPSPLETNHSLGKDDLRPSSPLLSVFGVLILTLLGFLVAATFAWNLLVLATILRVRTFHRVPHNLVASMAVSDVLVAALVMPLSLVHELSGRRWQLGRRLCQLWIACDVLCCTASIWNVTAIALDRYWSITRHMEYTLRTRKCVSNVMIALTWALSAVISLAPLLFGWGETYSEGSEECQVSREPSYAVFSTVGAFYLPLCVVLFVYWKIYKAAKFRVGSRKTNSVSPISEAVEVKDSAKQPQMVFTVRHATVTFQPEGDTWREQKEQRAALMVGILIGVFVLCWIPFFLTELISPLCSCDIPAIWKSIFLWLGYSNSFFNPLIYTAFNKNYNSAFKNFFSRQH

CRF2 = CRF2 (Homo sapiens, UniProt Q13324); assay: CRF2 Ca2+ assay (absence of CRFBP(10 kD)); conditions: presence of EC80 CRF
Sequence of CRF2 (Q13324 whole entry): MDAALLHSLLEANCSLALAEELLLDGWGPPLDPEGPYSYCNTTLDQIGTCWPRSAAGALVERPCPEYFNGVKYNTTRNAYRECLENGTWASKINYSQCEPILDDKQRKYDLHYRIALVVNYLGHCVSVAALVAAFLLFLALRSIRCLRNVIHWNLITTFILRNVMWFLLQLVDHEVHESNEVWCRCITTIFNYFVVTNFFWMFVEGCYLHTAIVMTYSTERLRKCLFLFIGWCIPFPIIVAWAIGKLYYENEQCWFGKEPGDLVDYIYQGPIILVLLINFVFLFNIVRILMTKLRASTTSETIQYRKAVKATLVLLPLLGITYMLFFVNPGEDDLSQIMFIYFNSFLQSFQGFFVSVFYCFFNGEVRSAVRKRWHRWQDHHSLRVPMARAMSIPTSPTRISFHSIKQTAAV

Beta2 = Beta2 (Homo sapiens, UniProt P07550); assay: PDSP binding assay; conditions: 10 μM, quadruplicate, cloned target
Sequence of Beta2 (P07550 whole entry): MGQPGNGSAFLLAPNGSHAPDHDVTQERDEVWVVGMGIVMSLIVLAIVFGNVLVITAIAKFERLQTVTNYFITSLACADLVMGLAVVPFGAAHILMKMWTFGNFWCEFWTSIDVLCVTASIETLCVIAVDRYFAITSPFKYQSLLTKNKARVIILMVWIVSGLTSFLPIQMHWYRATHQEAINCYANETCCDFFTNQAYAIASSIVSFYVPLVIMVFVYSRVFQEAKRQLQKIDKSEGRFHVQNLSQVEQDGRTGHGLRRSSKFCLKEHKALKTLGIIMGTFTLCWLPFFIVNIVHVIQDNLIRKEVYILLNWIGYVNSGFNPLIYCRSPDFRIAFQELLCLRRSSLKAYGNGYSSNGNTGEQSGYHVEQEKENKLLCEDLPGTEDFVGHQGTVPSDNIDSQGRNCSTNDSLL

M5 = M5 (Homo sapiens, UniProt P08912); assay: PDSP binding assay; conditions: 10 μM, quadruplicate, cloned target
Sequence of M5 (P08912 whole entry): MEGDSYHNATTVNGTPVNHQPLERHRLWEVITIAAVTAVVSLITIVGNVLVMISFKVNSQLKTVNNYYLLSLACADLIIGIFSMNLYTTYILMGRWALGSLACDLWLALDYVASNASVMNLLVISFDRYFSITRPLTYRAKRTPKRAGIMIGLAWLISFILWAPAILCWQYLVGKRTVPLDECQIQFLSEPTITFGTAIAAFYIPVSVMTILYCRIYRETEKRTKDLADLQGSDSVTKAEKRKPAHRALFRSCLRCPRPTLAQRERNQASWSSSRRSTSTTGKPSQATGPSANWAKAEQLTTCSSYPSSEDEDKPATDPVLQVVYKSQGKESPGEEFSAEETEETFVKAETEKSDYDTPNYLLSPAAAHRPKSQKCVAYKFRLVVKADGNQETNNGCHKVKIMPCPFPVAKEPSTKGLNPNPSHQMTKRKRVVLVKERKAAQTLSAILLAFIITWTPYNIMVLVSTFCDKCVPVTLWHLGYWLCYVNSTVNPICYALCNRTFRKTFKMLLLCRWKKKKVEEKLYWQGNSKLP

5-HT3 = biological target: T3, 5-HT3 (Homo sapiens, UniProt P46098); assay: PDSP binding assay; conditions: 10 μM, quadruplicate, cloned target
T3 construct: NIMH Psychoactive Drug Screening Program (PDSP)
T3 sequence (P46098 24-478, species assumed): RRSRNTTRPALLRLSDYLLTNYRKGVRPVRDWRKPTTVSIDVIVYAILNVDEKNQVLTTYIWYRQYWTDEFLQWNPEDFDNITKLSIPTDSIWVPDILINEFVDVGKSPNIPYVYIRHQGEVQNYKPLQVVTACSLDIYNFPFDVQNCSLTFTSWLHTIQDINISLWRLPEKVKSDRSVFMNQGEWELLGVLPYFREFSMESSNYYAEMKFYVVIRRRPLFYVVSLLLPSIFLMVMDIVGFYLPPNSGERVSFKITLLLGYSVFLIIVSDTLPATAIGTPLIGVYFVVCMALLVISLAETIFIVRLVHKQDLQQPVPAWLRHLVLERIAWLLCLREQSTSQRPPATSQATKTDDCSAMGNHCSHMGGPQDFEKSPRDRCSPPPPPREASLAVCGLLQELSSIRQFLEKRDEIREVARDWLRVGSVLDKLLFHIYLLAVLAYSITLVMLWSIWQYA

T1 sequence (P28221 whole entry, species assumed): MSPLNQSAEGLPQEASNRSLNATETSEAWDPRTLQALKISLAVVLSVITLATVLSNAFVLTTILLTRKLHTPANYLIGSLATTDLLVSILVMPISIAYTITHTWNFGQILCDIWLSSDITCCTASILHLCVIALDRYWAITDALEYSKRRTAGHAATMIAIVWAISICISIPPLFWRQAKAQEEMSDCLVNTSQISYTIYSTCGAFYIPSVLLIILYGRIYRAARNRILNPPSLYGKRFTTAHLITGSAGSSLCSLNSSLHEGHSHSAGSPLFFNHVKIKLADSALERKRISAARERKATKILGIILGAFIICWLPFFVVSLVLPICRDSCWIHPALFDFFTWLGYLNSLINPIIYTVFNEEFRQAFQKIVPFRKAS

Row | SMILES | Activity at Sigma 2 (binding assay) (Sigma 2) | Activity at 5-HT1D (binding assay) (5-HT1D) | Activity at 5-HT5A (binding assay) (5-HT5A) | Activity toward CRF2 in the absence of CRFBP(10 kD) (CRF2) | Activity at Beta2 (binding assay) (Beta2) | Activity at M5 (binding assay) (M5) | Activity at 5-HT3 (binding assay) (5-HT3)
1 | Brc1ccccc1-c1nnc(CSc2nnnn2-c2ccccc2)o1 [MLS-0046818] | −7% | −5% | −1% | inactive | 1% | −6% | −2%
2 | CC(C)Cn1c(SCC(=O)N2CCc3ccccc3C2)nc2cc(Cl)ccc2c1=O [MLS-0219419] | 9% | −5% | 12% | – | −13% | −2% | 2%
